The test system of one experiment is TRAF1 induction. The experiment can be described thus: TRAF1 expression in anti-IgM-stimulated CLL B-cells (immunoblot). It counts as cell-based, human. Conditions: 24 hr after stimulation. The procedure:
(A) Isolated mouse primary splenocytes were cultured with anti-CD3/anti-CD28 (0.3 μg/mL each) or anti-IgM (3 μg/mL) for 48 h, then 1 μCi 3H-Thymidine was added for 12 h and incorporation into DNA was measured, expressing data as fold increase above unstimulated cells (mean±SD; n=3). (B-D) Primary splenocytes were pretreated for 2 h with IKK inhibitor, BMS-335541 (B), PKC inhibitor, Bisindolylmaleimide I (C) or CID-2858522 (D), then stimulated with anti-CD3/anti-CD28 (0.3 μg/mL) or anti-IgM (3 μg/mL) for 48 h. 1 μCi 3H-Thymidine was added for 12 h and incorporation into DNA was measured, expressing data as percent inhibition relative to control cells treated with DMSO (mean±SD; n=3). […] Levels of TRAF1 and β-actin were assessed by immunoblotting, quantified by densitometry and TRAF1 results reported relative to control cells, after normalization for β-actin (mean±SD). […] Then nuclear extracts were prepared and p65-DNA-binding activity was measured (mean±SD; n=3).
Chronic Lymphocytic Leukemia (CLL) cell culture. Peripheral blood mononuclear cells from CLL patients were obtained under IRB approval from whole blood by Ficoll density gradient centrifugation and cultured with RPMI 1640 Medium supplemented with 10% FBS and antibiotics.
In general terms: A western blot detects proteins with antibodies after separation by electrophoresis.

For experiment [1], the system named is CARMA/MALT1/Bcl-10 complex. In words: Co-immunoprecipitation of CARMA1/CARMA3 with Bcl-10, MALT, TRAF6, IKKγ, Caspase-8 in transfected HEK293 cells. To be noted: for inhibition of PMA-induced association of CARMA1 or CARMA3 with Bcl-10, MALT, TRAF6, IKKγ, Caspase-8: CID-2858522 4 μM, Bisindolylmaleimide I 1 μM. It counts as cell-based. On the procedure: (§1) FIG. 7. CID-285852 inhibits IKKβ phosphorylation induced by PKC activators. (A) HEK293 cells were cultured in 0.5% FBS medium for 24 h and then treated with CID-2858522 (4 μM) or PKC inhibitor, Bisindolylmaleimide I (1 μM) for 2 hrs followed by PMA/Ionomycin (10 ng/mL; 5 ng/mL) for 2 h. Cell lysates were subjected to immunoprecipitation using anti-CARMA1 antibody and analyzed by immunoblotting with anti-phospho-CARMA1 antibody or anti-CARMA1 antibody. (B-E) HEK293 cells were transfected with plasmids encoding myc-CARMA1 in combination with plasmids encoding various other proteins including Caspase-8 (cys287ala) (B), HA-IKK-γ (C), HA-TAK1 (D), and TRAF6 (E). After 36 h. cells were cultured in 0.5% FBS medium for 12 h and then treated with CID-2858522 (4 μM) or Bisindolylmaleimide I (1 μM) for 2 hrs, followed by PMA/Ionomycin treatment (10 ng/mL; 5 ng/mL) for 2 hrs. Cell lysates were immunoprecipated using anti-myc antibody and analyzed by immunoblotting using anti-Caspase8 (B), anti-HA (C,D), or anti-TRAF6 (E) antibodies. (F) HEK293 cells were treated with CID-2858522 (4 μM) or PKC inhibitor (1 μM) followed by PMA/Ionomycin (10 ng/mL; 5 ng/mL) treatment for 2 hrs. Cell lysates were normalized for protein content and analyzed by immunoblotting using anti-FLIP and anti-alpha-tubulin antibodies. […] Cell lysates were immunoprecipitated using anti-IKK-β and analyzed by immunoblotting using anti-phospho-IKK-β antibody or anti-IKK-β antibody (as loading control). Approximate molecular weights of all proteins are indicated in kiloDaltons.
Mapping the site of action of CID-2858522 in the antigen receptor-activated NF-κB pathway. […] To characterize the effects of CID-2858522 on these possible targets of the antigen receptor pathway for NF-κB activation, we first evaluated PMA-induced phosphorylation of Carmal, by phospho-specific antibody immunoblotting, finding no effect of CID-2858522 on this molecular event that initiates formation of the CBM complex (FIG. 7A). […]

The test system of a further experiment is c-FLIP processing. The experiment can be described thus: PMA/Ionomycin-induced c-FLIP processing in HEK293 cells (immunoblot). Conditions: CID-2858522 4 μM, PKC inhibitor 1 μM. It counts as cell-based. On the procedure:
as §1, with “After 36 h. cells were cultured in 0.5% FBS medium for 12 h and then treated with CID-2858522 (4 μM) or Bisindolylmaleimide I (1 μM) for 2 hrs, followed by PMA/Ionomycin treatment (10 ng/mL; 5 ng/mL) for 2 hrs.” left out, “(F) HEK293 cells were treated with CID-2858522 (4 μM) or PKC inhibitor (1 μM) followed by PMA/Ionomycin (10 ng/mL; 5 ng/mL) treatment for 2 hrs.” left out, “Approximate molecular weights of all proteins are indicated in kiloDaltons.” left out
Caspase-8 plays an essential role in antigen receptor-mediated NF-κB activation. […] We then assessed the effects of CID-2858522 on PMA-induced proteolytic processing of c-FLIP, a Caspase-8-mediated event recently shown to be required for antigen receptor mediated NF-κB activation.

For experiment [2], the system named is γ-TriDAP (NOD1 agonist) stimulated IL-8 production. The experiment can be described thus: IL-8 production by MCF7 cells stimulated with γ-TriDAP. Conditions: listed as CID-2858522. It counts as cell-based. The source says: FIG. 1 is a flow chart of screening and counter-screenings for selective inhibitors of antigen-receptor induced NF-κB pathway. A total of 114,889 compounds were screened. From a screen of 53,280 commercially available compounds (left column), 519 hits were obtained, of which 248 reconfirmed using the same primary screening assay. […] From these 11 active compounds, one hit, CID-2858522, inhibited PMA/Ionomycin-induced production of cytokine IL-8 by the HEK293 cell line. CID-2858522 was then characterized (right column). PDB was substituted for PMA to confirm suppression of an alternative PKC activator. Pathway selectivity was assessed using panels of cell lines, starting with HEK293 cells in which each of the remaining NF-κB activation pathways was stimulated, showing inhibition only of PMA/Ionomycin-induced NF-κB reporter gene activity (panel 1). […]

“Also recorded” adds a separate entry of the source.

On to `Cc1cc2nc(NCCCO)n(CC(=O)c3cc(C(C)(C)C)c(O)c(C(C)(C)C)c3)c2cc1C` [Compound 1, 2-(2-(3-Hydroxypropylamino)-5,6-dimethyl-1H-benzo[d]imidazol-1-yl)-1-(3,5-di-tert-butyl-4-hydroxyphenyl)ethanone], for which the “inhibition of anti-IgM-stimulated TRAF1 expression” value in the experiment with TRAF1 induction is “inhibited”. Also, in experiment [1], the “inhibition of PMA-induced association of CARMA1 or CARMA3 with Bcl-10, MALT, TRAF6, IKKγ, Caspase-8” value is “not by CID-2858522”. Besides, the “disruption of CARMA/MALT1/Bcl-10 (CMB) complex formation” value in experiment [1] (PMA/Ionomycin, cells or lysate) was “did not disrupt”. The “inhibition of c-FLIP processing” value in the experiment with c-FLIP processing is on record as “not affected”. The “suppression of IL-8 production, γ-TriDAP-stimulated MCF7” value in experiment [2] is reported as “failed to inhibit; also recorded: did not suppress”.
In the case of `CN(C)CCCn1cc(C2=C(c3c[nH]c4ccccc34)C(=O)NC2=O)c2ccccc21` [Bisindolylmaleimide I, reference compound], in the experiment with TRAF1 induction, the “inhibition of anti-IgM-stimulated TRAF1 expression” value is reported as “also inhibited”. In addition, the “inhibition of PMA-induced association of CARMA1 or CARMA3 with Bcl-10, MALT, TRAF6, IKKγ, Caspase-8” value in experiment [1] is reported as “inhibited”. The “inhibition of c-FLIP processing” value in the experiment on c-FLIP processing was “completely inhibited”.

The values are drawn from patent publication US20090247520A1, “INHIBITORS OF ANTIGEN RECEPTOR-INDUCED NF-kappa B ACTIVATION” (The Burnham Institute for Medical Research, priority 2008, published 2009).
